Some results are limits rather than exact numbers.

Data set [1] in a line: In vivo pharmacokinetic study, plasma and brain levels by LC-MS. Details: species or system mice. As to the method:
The compounds pharmacokinetic properties were examined in vivo by administering the compounds intraperitoneally (i.p.) at 1 mg/kg in mice, and determining plasma and brain levels over 8 h by LC-MS measurements.
The pharmacokinetic study was performed by Pharmacelsus (Saarbrücken, Germany). In total 27 male C57BL/6 mice (8 weeks old, 23-31 g body weight, purchased from Janvier Labs, France) were used. The animals were housed in a temperature-controlled room (20-24° C.) and maintained in a 12 h light/dark cycle. Food and water were available ad libitum. All experimental procedures were approved by and conducted in accordance with the regulations of the local Animal Welfare authorities (Landesamt für Gesundheit und Verbraucherschutz, Abteilung Lebensmittel-und Veterinärwesen, Saarbrücken).
The animals were divided into 3 groups (9 mice/group) and a cassette dosing was performed, in which the mice received a single dose of 1 mg/kg body weight of 3-4 compounds (dissolved in 0.9% NaCl containing 20% cyclodextrine) i.p. simultaneously. From each animal 2 blood samples were collected from the retrobulbar venous plexus under short isoflurane anesthesia (at 0.25 h and 0.5 h from 3 mice; at 1 h and 2 h from 3 mice; and at 4 h and 8 h from 3 mice). Li-heparin was used as anticoagulant. Plasma samples were obtained by centrifugation for 10 min at 3000× g and 4° C. Immediately after the last blood sample the animal was sacrificed by cervical dislocation and the brain was removed and frozen in liquid nitrogen. Plasma and brain samples were stored at −80° C. until LC-MS analysis.
For all other compounds, the HPLC system consisted of a U-HPLC pump (Accela) and an AS Open auto sampler (Thermo Fisher Scientific, USA), and mass spectrometry was performed on a Q Exactive (Orbitrap) accurate mass spectrometer equipped with a heated electrospray (H-ESI) interface (Thermo Fisher Scientific, USA) connected to a PC running the standard software Chromeleon 7.2. For all compounds, the HPLC pump flow rate was set to 600 μl/min and the compounds were separated on an analytical column with a suitable pre-column. The pharmacokinetic analysis was performed applying a non-compartment model using the Kinetica 5.0 software (Thermo Scientific, Waltham, USA). All given parameters were obtained by trapezoid area calculation.

In data set [2] the target is T1, human ether-à-go-go (hERG) potassium channel (Homo sapiens, UniProt Q12809).
T1 construct: Eurofins SafetyScreen44
As to the kind of experiment: SafetyScreen44 binding. Conditions: 10 μM. As for the experimental part:
(§1) Compound enzyme inhibition effect was calculated as a % inhibition of control enzyme activity. […] Measurements were performed in duplicate.

Data set [3] concerns the target T2, serotonin 5-HT2B receptor (Homo sapiens, UniProt P41595).
T2 construct: Eurofins SafetyScreen44
The data set is described as follows: SafetyScreen44 binding. The conditions noted are these: substantial = higher than 50%. As to the method:
as §1

The target in data set [4] is T3, serotonin 5-HT2A receptor (Homo sapiens, UniProt P28223).
T3 construct: Eurofins SafetyScreen44
The data set is described as follows: SafetyScreen44 binding. The conditions noted are these: substantial = higher than 50%. As for the experimental part:
as §1

The test system of another data set is motor function of mice. As to the kind of experiment: Vertical pole test (motor function). In kind it is in vivo. As for the experimental part:
Further studies were conducted to assess the in vivo efficacy of Compound 6 and Compound 10 in mice. In detail, experiments were performed in 8 to 16 weeks old C57BL/6N mice (Charles River, Sulzfeld, Germany) and animals with a genetic deletion of Slack (Slack^−/− mice^27) of either sex. Animals were housed on a 12 h light/dark cycle with access to food and water ad libitum. All experiments adhered to the guidelines of the International Association for the Study of Pain and to the ARRIVE (Animal Research: Reporting on In Vivo Experiments) guidelines, and were approved by and conducted in accordance with the regulations of the local Animal Welfare authorities (Regierungspräsidium Darmstadt, Germany). All behavioral studies were conducted during the light cycle of the day at room temperature (20-24° C.) by an observer blinded for the treatment of the animals and/or their genotype.
Accelerating rotarod and vertical pole test were performed as follows: Mice were placed on a rotarod treadmill (Ugo Basile, Italy) with increasing speed (4-40 rpm over 300 s), and were trained for 4-5 consecutive days. Only mice reaching the 300 seconds without falling off were included in the experiment. On the testing day, compounds were i.p. administered in a vehicle composed of 0.9% saline (Sigma-Aldrich) containing 10% 2-hydroxypropyl-β-cyclodextrine (ITW Reagents) and after 15 min the latency to fall off the accelerating rotarod was measured. Immediately thereafter, mice were placed head-upward on the top of a vertical pole with a rough surface (diameter 1 cm, height 40 cm) and the time until animals reached the ground was recorded (cut-off time 20 s). Means out of three trials for each time point were calculated for further analysis.

Data set [5] is described as follows: BBB-specific parallel artificial membrane permeability assay (PAMPA-BBB). The format is in vitro ADME, porcine. Conditions: pH 7.4, 37° C., 4 h. As for the experimental part: BBB permeability was estimated using a BBB-specific parallel artificial membrane permeability assay (PAMPA-BBB). […] Five v/v % DMSO in PBS (Phosphate Buffer Saline; 0.01 M, pH=7.4) buffer solutions of each compound were prepared with the final nominal concentration of 100 μM. These solutions were treated with ultrasonic waves and then centrifuged in case the test compounds were insoluble at this concentration. Proceeding with saturated, homogenous solutions (CD(0)) is sufficient because log Pe only depends on relative concentrations. A BBB specific PAMPA system was used to determine the log Pe and membrane retention (MR). Each well of the top plate (MultiScreen […]10; Millipore; Billerica, US) was carefully coated with 5 μL of porcine polar brain lipid extract (PBLE; Avanti Polar Lipids, Birmingham, US) solution, then 150 μL of the CD(0) solution was put on the membrane. The bottom plate (MultiScreen MDCPN2M50; Millipore, Billerica, US) was filled with […] PBS. PBLE solution consisted of 1 mg PBLE per 10 μL n-dodecane and 30 μL n-hexane. The donor plate was put on the acceptor plate and covered with a wet paper tissue and a plate lid. The sandwich system was incubated at 37° C. for 4 h. The plates were shaken and incubated in a Thermo ScientificTM MaxQTM 4000 Benchtop Orbital Shaker (Gel, Belgium). After the incubation, PAMPA sandwich plates were separated and compound concentrations in donor (CD(t)) and acceptor (CA(t)) solutions were determined by UPLC-MS (Waters, Milford, US). The concentration of the donor solution at zero time point (CD(0)) was determined using the supernatant after centrifugation.

Where [6] appears, read: mice, 1 mg/kg i.p., cassette dosing, plasma.

T3 sequence (P28223 whole entry): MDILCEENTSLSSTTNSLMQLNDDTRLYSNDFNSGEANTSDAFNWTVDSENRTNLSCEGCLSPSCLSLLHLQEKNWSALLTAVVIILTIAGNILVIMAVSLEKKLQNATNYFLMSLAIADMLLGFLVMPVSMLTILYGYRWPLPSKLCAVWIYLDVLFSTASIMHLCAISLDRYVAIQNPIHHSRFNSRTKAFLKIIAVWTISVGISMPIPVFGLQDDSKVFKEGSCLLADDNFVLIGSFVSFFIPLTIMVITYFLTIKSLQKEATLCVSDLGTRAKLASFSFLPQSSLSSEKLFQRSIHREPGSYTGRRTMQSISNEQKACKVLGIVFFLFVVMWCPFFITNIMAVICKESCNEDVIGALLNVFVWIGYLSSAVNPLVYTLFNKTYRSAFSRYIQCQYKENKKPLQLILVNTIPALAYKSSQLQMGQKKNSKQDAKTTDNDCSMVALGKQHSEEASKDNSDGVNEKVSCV
T2 sequence (P41595 whole entry): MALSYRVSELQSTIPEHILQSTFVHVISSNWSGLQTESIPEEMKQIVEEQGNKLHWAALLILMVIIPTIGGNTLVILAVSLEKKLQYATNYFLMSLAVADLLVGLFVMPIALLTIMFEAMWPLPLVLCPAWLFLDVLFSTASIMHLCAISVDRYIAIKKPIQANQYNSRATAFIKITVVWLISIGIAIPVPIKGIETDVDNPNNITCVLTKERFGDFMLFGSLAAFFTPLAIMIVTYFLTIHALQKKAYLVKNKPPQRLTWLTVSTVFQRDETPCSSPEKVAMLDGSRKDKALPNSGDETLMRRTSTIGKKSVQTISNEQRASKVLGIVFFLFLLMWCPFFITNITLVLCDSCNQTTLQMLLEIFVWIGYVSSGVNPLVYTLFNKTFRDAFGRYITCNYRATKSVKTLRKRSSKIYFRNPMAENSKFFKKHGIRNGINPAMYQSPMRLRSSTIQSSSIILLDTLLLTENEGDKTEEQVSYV
T1 sequence (Q12809 whole entry): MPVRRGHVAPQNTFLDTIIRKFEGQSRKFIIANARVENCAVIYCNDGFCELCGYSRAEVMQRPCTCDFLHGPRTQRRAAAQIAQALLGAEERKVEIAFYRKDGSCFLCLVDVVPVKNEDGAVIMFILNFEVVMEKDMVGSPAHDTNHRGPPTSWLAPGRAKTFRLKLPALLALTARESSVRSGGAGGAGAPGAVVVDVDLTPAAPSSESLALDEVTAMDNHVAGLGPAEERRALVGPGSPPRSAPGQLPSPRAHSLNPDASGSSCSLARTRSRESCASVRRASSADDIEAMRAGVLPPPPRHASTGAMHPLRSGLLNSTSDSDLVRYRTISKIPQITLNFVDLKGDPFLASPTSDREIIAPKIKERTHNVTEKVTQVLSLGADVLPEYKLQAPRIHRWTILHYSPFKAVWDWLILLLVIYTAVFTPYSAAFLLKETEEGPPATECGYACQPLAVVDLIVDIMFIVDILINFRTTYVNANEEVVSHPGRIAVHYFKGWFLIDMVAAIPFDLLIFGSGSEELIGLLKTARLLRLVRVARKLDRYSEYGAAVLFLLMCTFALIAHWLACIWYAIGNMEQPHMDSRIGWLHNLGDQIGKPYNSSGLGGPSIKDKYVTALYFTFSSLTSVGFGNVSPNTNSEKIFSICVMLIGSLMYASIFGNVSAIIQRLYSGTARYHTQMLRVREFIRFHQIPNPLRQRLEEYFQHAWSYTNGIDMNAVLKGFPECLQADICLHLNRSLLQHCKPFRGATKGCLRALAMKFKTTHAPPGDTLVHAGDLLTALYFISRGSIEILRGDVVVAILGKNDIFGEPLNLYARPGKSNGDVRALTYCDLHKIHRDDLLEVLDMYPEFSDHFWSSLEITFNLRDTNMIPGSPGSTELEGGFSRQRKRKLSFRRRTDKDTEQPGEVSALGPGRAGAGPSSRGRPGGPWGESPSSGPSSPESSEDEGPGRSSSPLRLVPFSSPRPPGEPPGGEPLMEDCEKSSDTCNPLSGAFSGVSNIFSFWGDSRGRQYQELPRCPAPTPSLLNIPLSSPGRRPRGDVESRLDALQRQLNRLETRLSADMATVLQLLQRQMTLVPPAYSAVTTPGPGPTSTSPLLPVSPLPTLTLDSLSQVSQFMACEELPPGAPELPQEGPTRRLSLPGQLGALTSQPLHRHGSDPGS

Regarding `CN1CCN(C2=Nc3ccccc3Oc3ccc(Cl)cc32)CC1` [Loxapine, 2-chloro-11-(4-methylpiperazin-1-yl)dibenzo[b,f][1,4]oxazepine, reference compound], the AUC(0-inf) (as a rule, total exposure, with the tail of the curve extrapolated) in data set [1] (male, C57BL/6, mouse, ip, mice, 1 mg/kg i.p., cassette dosing, plasma, read-out: AUC (0-inf)) is 116 ng·h/mL. Besides, the AUC(0-t) in data set [1] (male, C57BL/6, mouse, ip, mice, 1 mg/kg i.p., cassette dosing, plasma, read-out: AUC(0-tz)) amounted to 105 ng·h/mL. Also, in data set [1] (male, C57BL/6, mouse, ip, mice, 1 mg/kg i.p., cassette dosing, plasma, read-out: CL/f (converted)), the CL/F was 144 mL/min/kg. Moreover, the Cmax (in general, the highest concentration seen after dosing) in data set [1] (male, C57BL/6, mouse, ip, mice, 1 mg/kg i.p., cassette dosing, plasma, read-out: Cmax) is 41.6 ng/mL. Also, the Vd/F in data set [1] (male, C57BL/6, mouse, ip, mice, 1 mg/kg i.p., cassette dosing, plasma, read-out: Vz/f) was 28.8 L/kg. In addition, the half-life in data set [1] (male, C57BL/6, mouse, ip, mice, 1 mg/kg i.p., cassette dosing, plasma, read-out: t1/2z (terminal elimination half-life) (converted)) was 138 min. For the same molecule, in data set [1] (male, C57BL/6, mouse, ip, mice, 1 mg/kg i.p., cassette dosing, plasma, read-out: tmax), the Tmax – broadly, the time at which the peak concentration occurs – was found to be 15 min. For the same molecule, in data set [1] (setting [6]), the “% AUCextra” value is 9.2%, the Cz amounted to 3.2 ng/mL and the tz was 8 h. Further, the “binding to hERG potassium channel in the off-target screen” value in data set [2] is “did not measurably bind”. Also, the inhibition (usually the percentage by which the read-out fell short of the control) at 10 µM in data set [3] is greater than 50%. The same molecule showed an inhibition at 10 µM in data set [4] greater than 50%. In addition, the “ability to perform in the vertical pole test” value in the data set with motor function of mice (dose ≥0.39 mg/kg i.p.) is reported as “significantly reduced the ability of the mice to perform”. In data set [5], the “MR (membrane retention factor)” value is given as 0.33.
Consider `O=c1nc(CN2CCN(C3=Nc4ccccc4Oc4ccc(Cl)cc43)CC2)[nH][nH]1` [Compound 10, 5-((4-(2-Chlorodibenzo[b,f][1,4]oxazepin-11-yl)piperazin-1-yl)methyl)-1,2-dihydro-3H-1,2,4-triazol-3-one], for which the Kp (commonly the ratio of the level in a tissue or fluid to that in plasma or blood) in data set [1] (male, C57BL/6, mouse, in vivo, ip, 1 mg/kg) was no more than 0.3. Also, in data set [2], the “binding to hERG potassium channel in the off-target screen” value was “did not measurably bind”. For the same molecule, the “binding inhibition, 5-HT2B” value in data set [3] (10 μM) is “substantial binding inhibition”. Further, in data set [4] (10 μM), the “binding inhibition, 5-HT2A” value was “substantial binding inhibition”. Besides, the “motor function in the vertical pole test” value in the data set on motor function of mice (3-30 mg i.p., after rotarod test) is recorded as “did neither impair the motor function”. Moreover, the “MR (membrane retention factor)” value in data set [5] came out at 0.02.
